Here are results for 32 molecules from patent US9487504B2, “Imidazolyl analogs as syk inhibitors” (Merck Sharp & Dohme Corp., priority 2012, dated 2016).

Bounds are passed on as bounds.

In one assay the target is T1, recombinant human GST-Syk (Homo sapiens, UniProt P43405).
T1 construct: purchased Carna Biosciences 08-176
Description: Homogeneous Time-Resolved Fluorescence (HTRF) assay for the recombinant human Syk enzyme. The note with it: ATP 25 μM, 10-dose titration, read-out: rhSYK Activity. Format: biochemical. The procedure, abridged:
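Recombinant GST-hSyk ([…]) was preincubated 10 min at room temperature with inhibitor (0.1% DMSO) in Tris pH 7.5, then reacted for 45 min with 250 nM biotinylated peptide, 5 mM Mg and 25 μM ATP. Phosphorylation was detected by HTRF (Eu-anti-phosphotyrosine/SA-APC). IC50 was derived from a 10-dose titration (10 μM–0.508 nM) with a 4-parameter fit.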
On to `Cc1ccnc(Nc2cc(C)cc(-n3cnc(C(C)(C)O)c3)n2)c1` [Example 87, 2-(1-{4-methyl-6-[(4-methylpyridin-2-yl)amino]pyridin-2-yl}-1H-imidazol-4-yl)propan-2-ol], for which the IC50 was at most 100 nM.
Same read-out and setting: the figure for `Cc1cc(Nc2nccc(C(F)(F)F)n2)cc(-n2cnc(C3=CCC(C)(C(=O)O)CC3)c2)c1` (racemic) [Example 21, 1-methyl-4-[1-(3-methyl-5-{[4-(trifluoromethyl)-pyrimidin-2-yl]amino}-phenyl)-1H-imidazol-4-yl]cyclohex-3-ene-1-carboxylic acid] is at most 100 nM; for `Cc1cc(Nc2nccc(C(F)(F)F)n2)cc(-n2cc(C(C)(C)O)nc2C)c1` [Example 68, 2-[2-Methyl-1-(3-methyl-5-{[4-(trifluoromethyl)pyrimidin-2-yl]amino}phenyl)-1H-imidazol-4-yl]propan-2-ol] it is 100 to 1000 nM; for `Cc1cc(Nc2nccc(C(F)(F)F)n2)cc(-n2cnc([C@]3(O)CC[C@@H](C(N)=O)CC3)c2)c1` [Example 34, cis-4-hydroxy-4-[1-(3-methyl-5-{[4-(trifluoromethyl)-pyrimidin-2-yl]amino}phenyl)-1H-imidazol-4-yl]-cyclohexanecarboxamide] it is at most 100 nM.
Still for that read-out and setting: the figure for `Cc1cc(Nc2cc(Cl)ccn2)nc(-n2cnc(C(C)(C)O)c2)c1` [Example 95, 2-(1-{6-[(4-chloropyridin-2-yl)amino]-4-methylpyridin-2-yl}-1H-imidazol-4-yl)propan-2-ol] is at most 100 nM; for `Cc1cc(Nc2nccc(C(F)(F)F)n2)cc(-n2cnc([C@]3(O)CC[C@@H](CC(=O)O)CC3)c2)c1` [Example 16, {cis-4-hydroxy-4-[1-(3-methyl-5-{[4-(trifluoromethyl)pyrimidin-2-yl]amino}phenyl)-1H-imidazol-4-yl]-cyclohexyl}acetic acid] it is at most 100 nM.
On the same count and under the same terms, in the case of `Cc1cc(Nc2cc(C(F)(F)F)ccn2)nc(-n2cnc(C(C)(C)O)c2)c1` [Example 92, 2-[1-(4-methyl-6-{[4-(trifluoromethyl)pyridin-2-yl]amino}pyridin-2-yl)-1H-imidazol-4-yl]propan-2-ol] it was at most 100 nM; in that of `COC(=O)c1cn(-c2cc(C)cc(Nc3cc(C(F)(F)F)ccn3)n2)cn1` [Example 93, Methyl 1-(4-methyl-6-{[4-(trifluoromethyl)-pyridin-2-yl]amino}-pyridin-2-yl)-1H-imidazole-4-carboxylate], at most 100 nM.
Take `Cc1cc(Nc2cc(C)c(F)cn2)nc(-n2cnc([C@]3(O)CC[C@@H](O)CC3)c2)c1` [Example 43, cis-1-(1-{6-[(5-fluoro-4-methylpyridin-2-yl)amino]-4-methylpyridin-2-yl}-1H-imidazol-4-yl)cyclohexane-1,4-diol]: the IC50 is at most 100 nM.
The same measure, in the same setting: in the case of `Cc1cc(Nc2cc(C)c(Cl)cn2)nc(-n2cnc([C@]3(O)CC[C@@H](OC(=O)c4ccccc4)CC3)c2)c1` [Example 49, cis-4-(1-{6-[(5-chloro-4-methylpyridin-2-yl)amino]-4-methylpyridin-2-yl}-1H-imidazol-4-yl)-4-hydroxycyclohexyl benzoate] it was 100 to 1000 nM; in that of `Cc1cc(Nc2cc(Cl)ccn2)nc(-n2cnc(C(O)(C3CC3)C3CC3)c2)c1` [Example 80, (1-{6-[(4-chloropyridin-2-yl)amino]-4-methylpyridin-2-yl}-1H-imidazol-4-yl)(dicyclopropyl)-methanol], at most 100 nM; in that of `Cc1cc(Nc2nccc(C(F)(F)F)n2)cc(-n2cnc([C@]3(O)CC[C@H](CC(=O)O)CC3)c2)c1` [Example 15, {trans-4-hydroxy-4-[1-(3-methyl-5-{[4-(trifluoromethyl)pyrimidin-2-yl]amino}phenyl)-1H-imidazol-4-yl]-cyclohexyl}acetic acid], at most 100 nM.
Still for that read-out and setting: the figure for `Cc1cc(Nc2nccc(C(F)(F)F)n2)cc(-n2cnc(C(=O)NC(C)C)c2)c1` [Example 89, N-(1-methylethyl)-1-(3-methyl-5-{[4-(trifluoromethyl)pyrimidin-2-yl]amino}-phenyl)-1H-imidazole-4-carboxamide] is 100 to 1000 nM; for `Nc1cc(Nc2cc(C(F)(F)F)ccn2)nc(-n2cnc(C(O)(C3CC3)C3CC3)c2)c1` [Example 84] it is at most 100 nM.
The same measure, in the same setting: in the case of `CC(C)(O)c1cn(-c2cccc(Nc3cc(Cl)ccn3)n2)cn1` [Example 101, 2-(1-{6-[(4-chloropyridin-2-yl)amino]pyridin-2-yl}-1H-imidazol-4-yl)propan-2-ol] it was at most 100 nM; in that of `COC(=O)c1cn(-c2cc(C)cc(Nc3cc(Cl)ccn3)n2)cn1` [Example 97, Methyl 1-{6-[(4-chloropyridin-2-yl)amino]-4-methylpyridin-2-yl}-1H-imidazole-4-carboxylate], at most 100 nM; in that of `O=C(O)CCc1cn(-c2cccc(Nc3cc(C(F)(F)F)ccn3)n2)cn1` [Example 114, 3-(1-(6-((4-(Trifluoromethyl)pyridin-2-yl)amino)pyridin-2-yl)-1H-imidazol-4-yl)propanoic acid], at most 100 nM.
Take `Cc1cc(Nc2nccc(C(F)(F)F)n2)cc(-n2cnc([C@@]3(O)CC[C@H](O)[C@@H](C)C3)c2)c1` [Example 55, (1R,3S,4S)-3-methyl-1-[1-(3-methyl-5-{[4-(trifluoromethyl)pyrimidin-2-yl]amino}phenyl)-1H-imidazol-4-yl]cyclohexane-1,4-diol]: the IC50 is at most 100 nM.
Turning to `OC(c1cn(-c2cccc(Nc3cc(Cl)ccn3)n2)cn1)(C1CC1)C1CC1` [Example 81, (1-{6-[(4-chloropyridin-2-yl)amino]pyridin-2-yl}-1H-imidazol-4-yl)(dicyclopropyl)-methanol], the IC50 was at most 100 nM.
In the case of `Cc1cc(Nc2nccc(C)n2)cc(-n2cnc3cc(C(=O)O)ccc32)c1` [Example 72, 1-{3-methyl-5-[(4-methylpyrimidin-2-yl)amino]phenyl}-1H-benzimidazole-5-carboxylic acid], the IC50 was 100 to 1000 nM.
Take `Cc1cc(Nc2ncc(F)c(C)n2)cc(-n2cnc([C@]3(O)CC[C@@H](OC(=O)c4ccccc4)CC3)c2)c1` [Example 58, cis-4-(1-{3-[(5-fluoro-4-methylpyrimidin-2-yl)amino]-5-methylphenyl}-1H-imidazol-4-yl)-4-hydroxycyclohexyl benzoate]: the IC50 fell in the range of 100 to 1000 nM.
As for `Cc1cc(Nc2nccc(C(F)(F)F)n2)cc(-n2cnc(C(C)(C)C(=O)O)c2)c1` [Example 111, 2-Methyl-2-[1-(3-methyl-5-{[4-(trifluoromethyl)pyrimidin-2-yl]amino}phenyl)-1H-imidazol-4-yl]propanoic acid], the IC50 is at most 100 nM.
Consider `COC(=O)C[C@H]1CC[C@](O)(c2cn(-c3cc(C)cc(Nc4nccc(C(F)(F)F)n4)c3)cn2)CC1` [Example 18, Methyl {cis-4-hydroxy-4-[1-(3-methyl-5-{[4-(trifluoromethyl)pyrimidin-2-yl]amino}phenyl)-1H-imidazol-4-yl]-cyclohexyl}acetate], for which the IC50 is at most 100 nM.
The same measure, in the same setting: in the case of `Cc1ccnc(Nc2cc(C)cc(-n3cnc(C(O)(C4CC4)C4CC4)c3)n2)c1` [Example 86, dicyclopropyl(1-{4-methyl-6-[(4-methylpyridin-2-yl)amino]pyridin-2-yl}-1H-imidazol-4-yl)methanol] it was at most 100 nM; in that of `Cc1cc(Nc2nccc(C(F)(F)F)n2)cc(-n2cnc(C3(O)CCN(C(N)=O)CC3)c2)c1` [Example 117, 4-Hydroxy-4-[1-(3-methyl-5-{[4-(trifluoromethyl)pyrimidin-2-yl]amino}phenyl)-1H-imidazol-4-yl]piperidine-1-carboxamide], at most 100 nM.
Turning to `Cc1cc(Nc2cc(C3CC3)ccn2)nc(-n2cnc([C@]3(O)CC[C@@H](OC(=O)c4ccccc4)CC3)c2)c1` [Example 50, cis-4-(1-{6-[(4-cyclopropylpyridin-2-yl)amino]-4-methylpyridin-2-yl}-1H-imidazol-4-yl)-4-hydroxycyclohexyl benzoate], the IC50 was at most 100 nM.
The same measure, in the same setting: in the case of `Cc1cc(Nc2nccc(C(F)(F)F)n2)cc(-n2cnc(C3(O)CCC(CC(N)=O)CC3)c2)c1` (stereo not drawn) [Example 6, 2-{cis-4-hydroxy-4-[1-(3-methyl-5-{[4-(trifluoromethyl)pyrimidin-2-yl]amino}phenyl)-1H-imidazol-4-yl]cyclohexyl)acetamide] it was at most 100 nM.
On to `Cc1cc(Nc2ncc(F)c(C)n2)cc(-n2cnc([C@]3(O)CC[C@@H](O)CC3)c2)c1` [Example 57, cis-1-(1-{3-[(5-fluoro-4-methylpyrimidin-2-yl)amino]-5-methylphenyl}-1H-imidazol-4-yl)cyclohexane-1,4-diol], for which the IC50 was at most 100 nM.
As for `Nc1cc(Nc2cc(Cl)ccn2)nc(-n2cnc(C(O)(C3CC3)C3CC3)c2)c1` [Example 79, (1-{4-amino-6-[(4-chloropyridin-2-yl)amino}pyridin-2-yl}-1H-imidazol-4-yl)(dicyclopropyl)methanol], the IC50 is at most 100 nM.
On the same count and under the same terms, the figure for `COc1ccnc(Nc2cc(C)cc(-n3cnc([C@]4(O)CC[C@@H](O)CC4)c3)c2)n1` [Example 39, cis-1-(1-{3-[(4-methoxypyrimidin-2-yl)amino]-5-methylphenyl}-1H-imidazol-4-yl)cyclohexane-1,4-diol] is at most 100 nM; for `CCOC(=O)C1CCC(O)(c2cn(-c3cc(C)cc(Nc4nccc(C(F)(F)F)n4)c3)cn2)CC1` (stereo not drawn) [Example 36, Ethyl trans-4-hydroxy-4-[1-(3-methyl-5-{[4-(trifluoromethyl)pyrimidin-2-yl]amino}phenyl)-1H-imidazol-4-yl]-cyclohexanecarboxylate] it is at most 100 nM.

Staying with this assay, now noted: ATP 25 μM, 10-dose titration, read-out: rhSYK IC50.
`CCOC(=O)C1CCC(O)(c2cn(-c3cc(C)cc(Nc4nccc(C(F)(F)F)n4)c3)cn2)CC1` (stereo not shown) [1, Step 1]: the IC50 is 12.7 nM.
Take `Cc1cc(Nc2nccc(C(F)(F)F)n2)cc(-n2cnc([C@]3(O)CC[C@@H](CC(=O)O)CC3)c2)c1` [Example 16, {cis-4-hydroxy-4-[1-(3-methyl-5-{[4-(trifluoromethyl)pyrimidin-2-yl]amino}phenyl)-1H-imidazol-4-yl]-cyclohexyl}acetic acid]: the IC50 amounted to 1.64 nM.
On to `Cc1cc(Nc2nccc(C(F)(F)F)n2)cc(-n2cnc(C3(O)CCN(C(N)=O)CC3)c2)c1` [Example 117, 4-Hydroxy-4-[1-(3-methyl-5-{[4-(trifluoromethyl)pyrimidin-2-yl]amino}phenyl)-1H-imidazol-4-yl]piperidine-1-carboxamide], for which the IC50 stood at 9 nM.
